Measurements taken from PMC11892739, “Site-specific molecular glues for the 14-3-3/Tau pS214 protein–protein interaction via reversible covalent imine tethering” (RSC Medicinal Chemistry, 2025).

Columns and labels:
14-3-3ζ/CFTR peptide = biological target: T1, 14-3-3ζ/CFTR peptide (Homo sapiens, UniProt P63104); assay: FA peptide screen, 14-3-3ζ titration to client peptide and compound: CFTR; assay type: binding; conditions: 250 μM compound, 100 nM peptide; +1 Val
T1 construct: made in house; host or cells: NiCo21 (DE3) E. coli
T1 sequence (P63104 whole entry): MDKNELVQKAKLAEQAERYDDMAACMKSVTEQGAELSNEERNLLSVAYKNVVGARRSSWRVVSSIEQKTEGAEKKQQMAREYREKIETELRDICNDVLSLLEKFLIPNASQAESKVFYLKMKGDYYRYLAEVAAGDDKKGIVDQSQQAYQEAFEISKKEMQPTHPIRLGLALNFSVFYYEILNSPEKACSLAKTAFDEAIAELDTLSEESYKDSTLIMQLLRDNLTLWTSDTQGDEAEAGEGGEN
T1 sequence (P13569 747-774 partner): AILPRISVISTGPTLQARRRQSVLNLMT
Experimental: (§1) Since the hub protein 14-3-3 binds to hundreds of phosphoprotein partners, selectivity of PPI stabilization is a major challenge. The interplay of chemical reactivity, and the topology and functionality of the composite binding pocket shaped by 14-3-3 and Tau potentially provide entries towards selective stabilization. […] Here, 14-3-3ζ was titrated to a constant concentration of client peptide (100 nM) and compound (250 μM) to determine the SF250μM values for the particular 14-3-3 PPI. A variety of 14-3-3 binding proteins was represented in this client panel whereby the size and hydrophobicity of the +1 amino acid were varied. […]
(§2) chromatography (HisTrap high performance cartridges, Cytiva). […] Dialyzed protein was concentrated to ∼40 mg/mL, analyzed by Q -Tof LC/MS, and aliquots were flash -frozen for storage at −80 °C. […]
(§3) 0.1% (v/v) Tween20, 0.1% (w/v) BSA). […] Measurements were performed directly after plate preparation, using a Tecan SPARK plate reader at room temperature ( λex: 485±20 nm; λem: 535±25 nm; mirror: automatic; flashes: 30; settle time: 1 ms; gain: optimal; Z -position: calculated from well). […] All data were analyzed using GraphPad Prism (10.0.1) and fitted with a four -parameter logistic model (4PL) to determine binding affinities (dissociation constant, KD). […]
(§4) Fluorescence Anisotropy – peptide screen […]

14-3-3ζ/p65 peptide = biological target: T2, 14-3-3ζ/p65 peptide (Homo sapiens, UniProt P63104); assay: FA peptide screen, 14-3-3ζ titration to client peptide and compound: p65; assay type: binding; conditions: 250 μM compound, 100 nM peptide; +1 Ile
T2 construct: made in house; host or cells: NiCo21 (DE3) E. coli
T2 sequence (P63104 whole entry, other chains not shown): as the sequence (P63104 whole entry) above
Experimental: as §1, §2, §3, §4

14-3-3ζ/ERRγ peptide = biological target: T3, 14-3-3ζ/ERRγ peptide (Homo sapiens, UniProt P63104); assay: FA peptide screen, 14-3-3ζ titration to client peptide and compound: ERRγ; assay type: binding; conditions: 250 μM compound, 100 nM peptide; +1 Cys
T3 construct: made in house; host or cells: NiCo21 (DE3) E. coli
T3 sequence (P63104 whole entry, other chains not shown): as the sequence (P63104 whole entry) above
Experimental: as §1, §2, §3, §4

14-3-3ζ/p53 peptide = biological target: T4, 14-3-3ζ/p53 peptide (Homo sapiens, UniProt P63104); assay: FA peptide screen, 14-3-3ζ titration to client peptide and compound: p53; assay type: binding; conditions: 250 μM compound, 100 nM peptide; +1 Glu
T4 construct: made in house; host or cells: NiCo21 (DE3) E. coli
T4 sequence (P63104 whole entry, other chains not shown): as the sequence (P63104 whole entry) above
Experimental: as §1, §2, §3, §4

14-3-3/Pin1 complex = tested on: 14-3-3/Pin1 complex; parameters: method as in PMID 34047554; conditions: 100 μM compound; cited from earlier work

Row | stabilization of 14-3-3/CFTR peptide (in words) (14-3-3ζ/CFTR peptide) | stabilization of 14-3-3/p65 peptide (in words) (14-3-3ζ/p65 peptide) | Structure (SMILES) | stabilization of 14-3-3/ERRγ peptide (in words) (14-3-3ζ/ERRγ peptide) | stabilization of 14-3-3/p53 peptide (in words) (14-3-3ζ/p53 peptide) | SF100μM for stabilization of the 14-3-3/Pin1 complex (14-3-3/Pin1 complex)
1 | minor off-target effects | minor off-target effects | CCc1ccc(-c2nccn2-c2ccc(C=O)c(Br)c2)cc1 [Compound 18] | did not show significant stabilizing activity | did not show significant stabilizing activity | –
2 | – | – | O=Cc1ccc(-n2ccnc2-c2ccccc2)cc1Br [Compound 1] | – | – | 10
